Results taken from PMC12188386, “Selective CBP/EP300 Bromodomain Inhibitors: Novel Epigenetic Tools to Counter TNF-α-Driven Inflammation” (JACS Au, 2025).
Values after ≈ are worked out from the molar mass of the structure shown. Read-outs that look alike come from different tables or passages of the source. Values belong to the compound of their own block, whether it stands above or below them.

Tests used:
[1] = test system: CBP-BRD; settings: TR-FRET, read-out: Affinity to CBP-BRD, IC50, cited from earlier work
[2] = test system: BRD4(1)-BRD; settings: cited from earlier work
[3] = test system: TNF-α-induced cytokine expression in THP-1 cells; assay: cytokine mRNA expression by RT-qPCR; assay type: cell-based, human; settings: 1 h co-treatment of THP-1 cells with 10 ng/mL TNF-α and 1 μM compound
Procedure: For cytokine expression determination, 5x10^5 THP-1 cells were plated on 12 well plates the day prior to treatment with 10 ng/mL recombinant human TNF -α (aa 77-233) protein (R&D systems, 10291 -TA) and compounds at a final concentration of 0.1 % DMSO. In all cases, total
(§1) RNA was extracted using the NucleoSpin® RNA kit (Machery -Nagel) and used for cDNA synthesis with the High -Capacity cDNA Reverse Transcription kit (Applied Biosystems). RT-qPCR reactions were performed using PowerSYBR™ green PCR Master Mix (Applied Biosystems) and a LightCycler® 480 (Roche). cDNA was denatured for 10 min at 95 °C followed by 40 cycles of 15 s at 95 °C and 1 min at 60 °C. Cp values were determined as the maximum of the second derivative and target gene expression was compared to that of hprt from the same sample using the 2-ΔCp method. Gene expression was then normalized to the average of the control samples from the same day, or all biological replicates. […]

[4] = test system: TNF-α-induced IL-8 secretion from THP-1 cells; assay: cytokine protein measurement (LEGENDPlex); assay type: cell-based, human; settings: 10 ng/mL TNF-α, 1 μM compound
Procedure: For cytokine expression determination, 5x10^5 THP-1 cells were plated on 12 well plates the day prior to treatment with 10 ng/mL recombinant human TNF -α (aa 77-233) protein (R&D systems, 10291 -TA) and compounds at a final concentration of 0.1 % DMSO. In all cases, total […]
Cytokine protein measurements
THP-1 cells were plated and treated as for the quantitative RT -PCR, then the cell culture medium was harvested by pelleting the cells (300g, 3min) and taking the supernatant .
Cytokine protein concentrations were determined using the LEGENDPlexTM Human Inflammation Panel 1 (BioLegend) assay with 25 µL of culture medium following the manufacturer’s instructi ns. amp es were ana zed f w c t metr n an rtessa Biosciences), and data was analyzed using LEGENDPlex software (BioLegend).

[5] = test system: MRC5 cells; assay: viability assay (resazurin); assay type: cell-based; settings: three-day treatment, concentration resulting in 70 % viability
Procedure: MRC5 (2x10^3 cells/well) or THP-1 (8x10^3 cells/well) cells were plated onto 96 well plates and treated with compounds at a final DMSO concentration of 0.5 % (MRC5) or 0.1 % (THP-1).
After 3 days of treatment, resazurin (Acros Organics) was added at a final concentration of 86 μ and incu ated for 2h15 (MRC5) or 3 h (THP-1). Fluorescence (ex. 560 nm, em. 590 nm) was read using a SpectraMax M5 (Molecular devices). GI30 values were calculated as the compound concentration resulting in 70 % viability compared to DMSO treated controls using a nonlinear regression fit using GraphPad Prism with the following equation: (Y=Bottom + (100-Bottom)/(1+(IC50/X)^HillSlope)). […]
After 1.5 h, mice were injected with 10 µL of the prepared CAPTISOL […]
foodpad and also intraperitoneally (for i.p. injection, the 10 µL of CAPTISOL solution was diluted to a final volume of 100 µL using PBS). Organs were collected 5 h after TNF-α […]
LEGENDPlexTM assays (Mouse Pro-inflammatory Chemokine Panel and Mouse Inflammation Panel; Biolegend) were performed to monitor cytokine/chemokine expression. Briefly, popliteal LNs were collected and carefully disrupted in […] ice-cold phosphate buffer, minimizing cell rupture. The suspension was centrifuged at 1,500 rpm for 5 min, and the […]

[6] = kinetic solubility; assay type: physicochemical; settings: PBS buffer, aqueous buffer, kinetic from dmso stock, PBS pH 7.4, 37°C, ± st. dev. between technical replicates, read-out: Kin. Sol.
Procedure: Starting from an initial concentration of 100, 50 or 20 µM, a 2-fold serial dilution of the compound (10 mM stock in DMSO) was prepared in a mixture of ACN/Buffer (PBS, pH = 7.4) 2:8, with 1% DMSO. 350 µL was transferred to a 96-Well Plate (Greiner, UV-star) then UV absorption (240-400 nm, 10 nm steps) was measured. The absorption was blank-corrected and plotted against concentration. The wavelength (λ) providing the best fitting straight line […]
was used as the calibration curve. To obtain saturated solutions of the compounds of interest, in duplicates 4.4 µL of a 10 or 5 mM stock in DMSO was added to 436 µL Buffer (PBS, pH = 7.4), to give a final concentration of 100 or 50 µM. Samples were incubated on a shaker (500 rpm) at 37°C for 90 minutes and then filtered (Millex-GV 13 mm, 0.22 µm). 304 µL of the filtrate was mixed with 76 µL of acetonitrile on a dilution plate, from which 350 µL was transferred to a UV-plate and UV-absorption was read using a SpectraMax M5 (Molecular devices). The absorbance was blank-corrected and compared to the calibration curve to […]
solubility. The wavelengths used for the calibration curve are available in Table S4.
Based on the known density of 12.5 % CAPTISOL® solution (d = 1.05755 g/mL at 25 °C), the precise weight of the resulting solution and so the required amount of water by weight was calculated. The water was added portion wise with agitation, vortexing and sonication cycles in between additions. The saturated solutions were then filtered (Millex-GV 13 mm, 0.22 µm). In duplicates, aliquots of the filtrates were taken and diluted with blank 12.5 % CAPTISOL® water solution in either a 1:14 (higher sol. compounds) or 1:7 (lower sol. compounds) ratio, 350 µL was transferred to a 96-Well Plate (Greiner, UV-star) then UV absorption (240-400 nm, 10 nm steps) was measured using a SpectraMax M5 (Molecular devices). The absorption was blank-corrected, compared to the calibration curve obtained during the solubility measurement method above and finally corrected for the dilution ratio to obtain the compound concentration in the saturated 12.5 % CAPTISOL® solution. The calculated concentrations are available in Table S4.
BROMOscan™ assays (provided by Eurofins DiscoverX, US)1,2 […]
coli host derived from the BL21 strain. E. coli were grown to log-phase and infected with T7 phage from a frozen stock (multiplicity of infection = 0.4) and incubated with shaking at 32°C until lysis (90-150 minutes). The lysates were centrifuged (5,000 x g) and filtered (0.2µm) to remove cell debris. Streptavidin-coated magnetic beads were treated with biotinylated small molecule or acetylated peptide ligands for 30 minutes at room temperature to generate affinity resins for bromodomain assays. The liganded beads were blocked with excess biotin and washed with blocking buffer (SeaBlock (Pierce), 1 % BSA, 0.05 % Tween 20, 1 mM DTT) to remove unbound ligand and to reduce non specific phage binding. Binding reactions were assembled by combining bromodomains, liganded affinity beads, and test compounds (see […]
Sodium azide, 7.4 mM DTT). All reactions were performed in polypropylene 384-well plates in a final volume of 0.02 mL. The assay plates were incubated at room temperature with […]
20). The beads were then resuspended in elution buffer (1x PBS, 0.05% Tween 20, 2 µM non-

[7] = molecular target: T1, CBP-BRD (ePL-CBP-BRD in HEK293T cells) (Homo sapiens, UniProt Q92793); assay: CBP-BRD InCELL Pulse cellular target engagement; assay type: cell-based; settings: 1 h compound treatment of HEK293T cells transiently transfected with ePL-CBP-BRD
T1 construct: (residues 1083-1197) was cloned into the pICP-ePL-C vector; expressed in transfected cells; host or cells: HEK293T, transient transfection (vector pICP-ePL-C, DiscoverX 94-4007S)
Procedure: The CBP-BRD (residues 1083-1197) was cloned into the pICP-ePL-C vector (DiscoverX, 94-4007S) between the EcoRI and XhoI restriction sites using the hexahistidine-CREBBP plasmid as a template. 5x10^5 HEK293T cells were plated on a 6 well plate the day prior to transfection with 1.5 μg ePL-CBP-BRD plasmid using 5 μl FugeneHD (Promega E2311) in 500 μl optiMEM® (Gibco, 31985062) . Proteins were allowed to express for 20 h before cells were trypsinized, washed and resuspended in low -serum medium (DMEM with 5 % FBS). Compounds were serially diluted in DMSO at 100x, pre-diluted to 5x in complete medium (DMEM with 10 % FBS and 1 % P/S), then added to a suspension of 5x10^3 cells, giving a final DMSO concentration of 1 %. Treated cells were incubated for 1 h at 37 °C in an incubator, followed by a heat shock for 3 min at 45 °C and recovery for 3 min at 22 °C using a thermocycler with a ramp rate of 1 °C/s (SimpliAmp, Thermo Fisher). Stab ilized ePL tag was quantified using the InCELL detecti n Kit isc verX as per the manufacturer’s pr t c usin the -10 working detection solution and a 2 h incubation before reading luminescence with a SpectraMax M5 plate reader (Molecular devices). […]

[8] = test system: myc expression in LP1 cells; assay: myc mRNA expression by RT-qPCR; assay type: cell-based; settings: 4 h treatment of LP1 cells with 1 μM compound
Procedure: For myc expression, 1x10^6 LP1 cells were plated the day prior to a 4 h treatment with compounds at a final DMSO concentration of 0.1 %. […]
In all cases, total
as §1

T1 sequence (Q92793 1083-1197): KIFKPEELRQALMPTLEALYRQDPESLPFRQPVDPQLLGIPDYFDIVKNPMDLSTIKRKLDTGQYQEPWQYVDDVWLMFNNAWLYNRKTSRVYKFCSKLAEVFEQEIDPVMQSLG

Compound: C[C@@H]1CC(=O)Nc2cccc(-c3ccc4c(c3)c(-c3cnn(C)c3)nn4C)c2N1 [CPI-637]
IC50 ([1]; ref Taylor et al., 2016): 30 nM | Sel. over BRD4(1)-BRD ([2]; ref Taylor et al., 2016): 367 fold

Compound: CNC(=O)N1CCc2c(c(N3CCCc4cc(-c5cnn(C)c5)c(C(F)F)cc43)nn2C2CCOCC2)C1 [GNE-781]
IC50 ([1]; ref Romero et al., 2017): 0.9 nM | Sel. over BRD4(1)-BRD ([2]; ref Romero et al., 2017): 5425 fold

Compound: CNC(=O)Nc1ccc2c(c1)CC[C@@]21OC(=O)N(CC(=O)N(Cc2ccc(F)cc2)[C@@H](C)C(F)(F)F)C1=O [A485]
TNF-α-induced expression of il1β, il8, mcp-1 and tnf-α (mRNA) [3]: significantly reduced the TNF-α-induced expression of all four tested genes | TNF-α-induced IL-8 protein secretion [4]: significantly reducing its TNF-α-induced secretion | GI30 [5]: 1200 nM

solubility kinetic at 90 min [6]: 69.9 ± 2.3 µM (≈ 39.5 µg/mL)
Compound: Cc1cc2c(NC(=O)c3cc(NC(=O)c4ccc(CN5CCN(C)CC5)o4)cc(-c4ccn(C)n4)c3)cccc2nn1 [Compound 8]

Compound: COc1ccc(CCc2nc3cc(-c4c(C)noc4C)ccn3c2NC2CCCCC2)cc1Cl [UMB298]
Sel. over BRD4(1)-BRD ([2]; ref Muthengi et al., 2021): 72 fold

Compound: COc1ccc(CCc2nc3cc(-c4c(C)noc4C)ccc3n2C[C@H](C)N2CCOCC2)cc1Cl [SGC-CBP30]
Sel. over BRD4(1)-BRD ([2]; ref Hay et al., 2014): 40 fold

solubility kinetic at 90 min [6]: 71 ± 0.7 µM (≈ 32.4 µg/mL) | cellular binding to CBP-BRD (InCELL Pulse) [7]: able to engage the target very similarly
Compound: Cc1cc2c(NC(=O)c3cc(NC(=O)[C@@H]4CCCO4)cc(-c4ccn(C)n4)c3)cccc2nn1 [Compound 6]
myc mRNA expression [8]: significantly decreased the expression level of myc

solubility kinetic at 90 min [6]: 6 ± 1 µM (≈ 2.8 µg/mL)
Compound: Cc1cc2c(NC(=O)c3cc(NC(=O)c4ccco4)cc(-c4c(C)n[nH]c4C)c3)cccc2nn1 [Compound 4]

solubility kinetic at 90 min [6]: 9.5 ± 0.4 µM (≈ 4.63 µg/mL)
Compound: Cc1cc2c(NC(=O)c3cc(NC(=O)c4ccco4)cc(-c4nn(C)cc4Cl)c3)cccc2nn1 [Compound 3]

solubility kinetic at 90 min [6]: 82.6 ± 0.7 µM (≈ 36.5 µg/mL)
Compound: Cc1cc2c(NC(=O)c3cc(NC(=O)C4COC4)cc(-c4ccn(C)n4)c3)cccc2nn1 [Compound 7]
